The numbers were not newly measured in patent publication US20060172021A1, “Herbal compositions for the prevention or treatment of symptoms of stress and infection” (priority 2005, published 2006), which cites them from elsewhere.

The subject of series [1] is female mice. The following applies: mouse, in vivo.
The test system of series [2] is prostaglandin synthesis.
In series [3] the test system is human progesterone production.

In the case of `C=C1CC[C@@H]2[C@](C)(CO)[C@H](O)CC[C@@]2(C)[C@@H]1/C=C/C1=CCOC1=O` [dehydroandrographolide], the “Dose required to affect pregnancy” value in series [1] is reported as 250 mg/kg. of body weight. This amount of pure. On to `CCCCCC(=O)/C=C(O)/C=C\c1ccc(O)c(OC)c1` [dehydrogingerdione], for which the “Inhibition of prostaglandin synthesis” value in series [2] is “potent inhibitors”. Take `CCCCCC(=O)CC(=O)CCc1ccc(O)c(OC)c1` [gingerdione]: the “Inhibition of prostaglandin synthesis” value in series [2] was “potent inhibitors”. Consider `CCCCC[C@H](O)CC(=O)CCc1ccc(O)c(OC)c1` [gingerol], for which the “Inhibition of prostaglandin synthesis” value in series [2] is on record as “potent inhibitors”. For the compound andrographolide sodium succinate, the “Detrimental effects on other normal human tissue” value in series [3] is recorded as “intended for. There were no detrimental effects”. For the same compound, the “Inhibition of human progesterone production” value in series [3] (cultured human placental tissue) is listed as “(derived from AP) was effective in inhibiting”.
